The values that follow come from patent US6362212B1, “Oxime derivative and bactericide containing the same as active ingredient” (Shionogi & Company, Ltd., priority 1994, dated 2002).

Data set [1] concerns Erysiphe graminis f. sp. tritici. Kind of data set: Controlling effect on Erysiphe graminis f. sp. tritici by foliage application (pot experiment). The conditions noted are these: foliage spray on wheat (cv. NORIN No. 61) seedlings, infected area after 10 days in greenhouse at 20° C.; for pest or weed control at 500 ppm: Blumeria graminis, foliar, 240 h, read-out: Controlling effect on ErYsiphe graminis f. sp. tritici by foliage application at 500 ppm (percent control). Type of data set: in vivo. In a few lines: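 Wheat seedlings (cv. NORIN No. 61, 2-3 weeks old) sprayed with compound in DMF diluted in water with spreader, then inoculated with conidia 24 hours later. Kept in greenhouse at 20 °C for 10 days; percent control calculated from infected leaf area.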

A further data set concerns Sphaerotheca fuliginea. The data set can be described thus: Controlling effect on Sphaerotheca fuliginea by foliage application (pot experiment). The class given is in vivo. The conditions noted are these: foliage spray on cucumber (cv. TSUKUBASHIROIBO) first leaves, infected area after 10 days in greenhouse at 20° C.; for pest or weed control at 500 ppm: Podosphaera fuliginea, in Cucumis sativus, foliar, 240 h, read-out: Controlling effect on Sphaerotheca fuliginea by foliage application at 500 ppm (percent control). In a few lines: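 First leaves of cucumber seedlings, 2-3 weeks old, were sprayed with compound (DMF solution diluted in water with spreader). They were inoculated 24 h later with a Sphaerotheca fuliginea conidia spray and kept 10 days at 20° C in a greenhouse. Percent control was calculated from infected leaf area.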

The next data set concerns Botrytis cinerea. The data set can be described thus: Controlling effect on Botrytis cinerea by foliage application (pot experiment). The conditions noted are these: foliage spray on cucumber (cv. TSUKUBASHIROIBO) first leaves, mycelial disks, lesion diameter after 3 days in moist chamber at 20° C. Type of data set: in vivo. As to the method:
The following Test Examples illustrate the effects of the fungicide of the present invention. (I. Controlling effects on various plant diseases by foliage application (pot experiment)) A test compound was dissolved in a small amount of N,N-dimethylformamide, and the solution was diluted to a given concentration with distilled water containing a spreader. Thus, a liquid sample to be tested was prepared. The liquid sample was sprayed to test plants, and 24 hours thereafter, pathogens were inoculated by the method described below. […] The seeds of cucumber ([…]) were sown in plastic cups (each 9 cm in diameter), followed by cultivation for 2 to 3 weeks. The test compound in the form of a solution or suspension was sprayed to the surface of their first leaves, and mycelial disks (4 mm φ) of Botrytis cinerea cultured on the potato sucrose agar medium were put on the leaf surfaces to inoculate. the cucumber seedlings with the pathogen. The plants were kept in a moist chamber at 20° C. for 3 days. The diameter of the lesions on the leaves was measured and the percent control was calculated.

Another data set concerns Pyricularia oryzae. The class given is in vivo. The conditions noted are these: foliage spray on rice seedlings (cv. […]), number of lesions six days after the inoculation.
The subject of the next data set is Puccinia coronata. The data set can be described thus: Controlling effect on Puccinia coronata by foliage application (pot experiment). Type of data set: in vivo. The conditions noted are these: foliage spray on oat (cv. PC-38) seedlings, infected area after 1 day moist chamber and 8 days greenhouse at 20° C. The essentials:
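Oat seedlings (cv. PC-38, 2–3 weeks old) were sprayed with compound in DMF diluted with spreader-containing water, then inoculated 24 h later with P. coronata spores diluted in talc. Plants were held 1 day in a moist chamber at 20° C, then 8 days in a greenhouse at 20° C; percent control came from infected leaf area.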

The test system of data set [2] is Pseudoperonospora cubensis. Kind of data set: Controlling effect on Pseudoperonospora cubensis by foliage application (pot experiment). The class given is in vivo. The conditions noted are these: foliage spray on cucumber (var. TSUKUBASHIROIBO) first leaves, lesion area after 10 days in moist chamber at 20° C. The essentials:
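Cucumber plants grown 2–3 weeks were sprayed on first leaves with compound (DMF solution diluted in water with spreader); 24 h later, Pseudoperonospora cubensis zoosporangia suspension dropped on leaves. Plants held in moist chamber at 20° C for 10 days; lesion area observed and percent control calculated.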

The term melting point denotes the temperature, or range, at which the solid turns liquid. The molecule `CON=C(c1nnn(C)n1)c1ccccc1COc1cc(C)ccc1C` [Compound No. 2036, 2-(2,5-dimethylphenoxymethyl)phenyl 2-methyl-2H-tetrazol-5-yl ketone O-methyloxime] gave a melting point of 131 to 132 °C. For the same molecule, the pest or weed control at 500 ppm in data set [1] was determined as 90%. Further, in the data set on Sphaerotheca fuliginea, the pest or weed control at 500 ppm was found to be 100%.

Take `CON=C(c1cc(C)no1)c1ccccc1COc1ncc(C(F)(F)F)cc1Cl` [Compound No. 690, 2-(3-chloro-5-trifluoromethyl-2-pyridyloxymethyl)phenyl 3-methylisoxazol-5-yl ketone O-methyloxime]: the melting point lay within 77 to 79 °C.

On to `CON=C(c1ncon1)c1ccccc1COc1ccc(Cl)cc1` [Compound No. 807, 2-(4-chlorophenoxymethyl)phenyl 1,2,4-oxadiazol-3-yl ketone O-methyloxime], for which the melting point fell in the range of 107 to 108 °C. For the same molecule, the pest or weed control at 500 ppm in the data set on Sphaerotheca fuliginea came to 100%.

Regarding `CON=C(c1ccccc1COc1cccc(Cl)c1)n1ccnc1` [Compound No. 6, 1-[2-(3-chlorophenoxymethyl)-α-methoxyiminobenzyl]imidazole], the melting point lay in the range of 96.5 to 97.5 °C. Also, in data set [1], the pest or weed control at 500 ppm came to 100%. The “Controlling effect on Botrytis cinerea by foliage application at 500 ppm (percent control)” value in the data set on Botrytis cinerea came out at 100 percent control. The “Controlling effect on PYricularia orYzae by foliage application at 500 ppm (percent control)” value with Pyricularia oryzae stood at 90 percent control. The “Controllng effect on Puccinia coronata by foliage application at 500 ppm (percent control)” value (shortened to “Controllng effect … (percent control)”) in the data set on Puccinia coronata came to 100 percent control.

For `CON=C(c1ccccc1COc1ccc(C)cc1)n1ccnc1` [Compound No. 15], the “Controlling effect on ErYsiphe graminis f. sp. tritici by foliage application at 500 ppm (percent control)” value in data set [1] is on record as 97 percent control. For the same molecule, the “Controlling effect on Botrytis cinerea by foliage application at 500 ppm (percent control)” value with Botrytis cinerea amounted to 100 percent control. In addition, the “Controlling effect on PYricularia orYzae by foliage application at 500 ppm (percent control)” value in the data set on Pyricularia oryzae is given as 90 percent control. Also, the “Controllng effect … (percent control)” value in the data set with Puccinia coronata amounted to 100 percent control. Further, the “Controlling effect on Sphaerotheca fuliginea by foliage application at 500 ppm (percent control)” value in the data set on Sphaerotheca fuliginea is on record as 100 percent control.

Turning to `CCON=C(c1ccccc1COc1ccccc1)n1cncc1C` [compound 215], the “Controlling effect on ErYsiphe graminis f. sp. tritici by foliage application at 500 ppm (percent control)” value in data set [1] was found to be 90 percent control. In addition, the “Controlling effect on Botrytis cinerea by foliage application at 500 ppm (percent control)” value in the data set on Botrytis cinerea turned out to be 97 percent control. For the same molecule, the “Controlling effect on PYricularia orYzae by foliage application at 500 ppm (percent control)” value with Pyricularia oryzae was found to be 70 percent control. For the same molecule, in the data set with Puccinia coronata, the “Controllng effect … (percent control)” value worked out at 90 percent control. Moreover, the “Controlling effect on Sphaerotheca fuliginea by foliage application at 500 ppm (percent control)” value in the data set with Sphaerotheca fuliginea came out at 100 percent control.

The molecule `CON=C(c1cc(C)no1)c1ccccc1CON=C(C)c1ccc(Cl)c(Cl)c1` [compound 2528, 2-(3,4-dichloro-α-methylbenzylideneaminooxymethyl)phenyl 3-methylisoxazol-5-yl ketone O-methyloxime] had a melting point of 84 to 85 °C. In the data set on Sphaerotheca fuliginea, the pest or weed control at 500 ppm worked out at 100%. Further, the “Controlling effect on Pseudoperonospora cubensis by foliage application at 500 ppm (percent control)” value in data set [2] is reported as 100 percent control.

Take `CON=C(c1ccccc1COc1ccccc1Cl)n1ccnc1` [Compound No. 5]: in data set [1], the “Controlling effect on ErYsiphe graminis f. sp. tritici by foliage application at 500 ppm (percent control)” value turned out to be 90 percent control. For the same molecule, the “Controlling effect on Botrytis cinerea by foliage application at 500 ppm (percent control)” value with Botrytis cinerea came to 70 percent control. For the same molecule, in the data set with Pyricularia oryzae, the “Controlling effect on PYricularia orYzae by foliage application at 500 ppm (percent control)” value is listed as 97 percent control. Also, the “Controllng effect … (percent control)” value in the data set on Puccinia coronata is recorded as 90 percent control. Further, the “Controlling effect on Sphaerotheca fuliginea by foliage application at 500 ppm (percent control)” value with Sphaerotheca fuliginea was 100 percent control.

Consider `CON=C(c1ccccc1COc1ccccc1)n1cncc1C` [compound 201], for which the “Controlling effect on ErYsiphe graminis f. sp. tritici by foliage application at 500 ppm (percent control)” value in data set [1] was determined as 90 percent control. In addition, the “Controlling effect on Botrytis cinerea by foliage application at 500 ppm (percent control)” value in the data set with Botrytis cinerea came to 70 percent control. In addition, the “Controlling effect on PYricularia orYzae by foliage application at 500 ppm (percent control)” value with Pyricularia oryzae is on record as 90 percent control. The “Controllng effect … (percent control)” value with Puccinia coronata turned out to be 90 percent control. Also, in the data set with Sphaerotheca fuliginea, the “Controlling effect on Sphaerotheca fuliginea by foliage application at 500 ppm (percent control)” value was determined as 100 percent control.

`CON=C(c1nnco1)c1ccccc1COc1cc(C)ccc1C` [Compound No. 736, 2-(2,5-dimethylphenoxymethyl)phenyl 1,3,4-oxadiazol-2-yl ketone O-methyloxime] came in with a melting point of 134 to 135 °C. In addition, the pest or weed control at 500 ppm in data set [1] came to 100%. Also, the “Controllng effect … (percent control)” value in the data set on Puccinia coronata is reported as 100 percent control. In the data set on Sphaerotheca fuliginea, the pest or weed control at 500 ppm turned out to be 100%.

Take `CON=C(c1ccccc1COc1c(C)cccc1C)n1ccnc1` [compound 40]: the “Controlling effect on ErYsiphe graminis f. sp. tritici by foliage application at 500 ppm (percent control)” value in data set [1] was determined as 97 percent control. Further, the “Controlling effect on Botrytis cinerea by foliage application at 500 ppm (percent control)” value with Botrytis cinerea was 70 percent control. In addition, in the data set on Pyricularia oryzae, the “Controlling effect on PYricularia orYzae by foliage application at 500 ppm (percent control)” value turned out to be 90 percent control. In addition, the “Controllng effect … (percent control)” value in the data set on Puccinia coronata stood at 70 percent control. Moreover, the “Controlling effect on Sphaerotheca fuliginea by foliage application at 500 ppm (percent control)” value in the data set with Sphaerotheca fuliginea is on record as 100 percent control.

As for `CON=C(c1ccccc1COc1ccc(Cl)cc1)n1cncc1C` [compound 207], the “Controlling effect on ErYsiphe graminis f. sp. tritici by foliage application at 500 ppm (percent control)” value in data set [1] turned out to be 100 percent control. Further, the “Controlling effect on Botrytis cinerea by foliage application at 500 ppm (percent control)” value with Botrytis cinerea was found to be 100 percent control. In the data set on Pyricularia oryzae, the “Controlling effect on PYricularia orYzae by foliage application at 500 ppm (percent control)” value came to 90 percent control. Further, the “Controllng effect … (percent control)” value with Puccinia coronata is 97 percent control. Further, in the data set with Sphaerotheca fuliginea, the “Controlling effect on Sphaerotheca fuliginea by foliage application at 500 ppm (percent control)” value is 100 percent control.

The molecule `CON=C(c1ccon1)c1ccccc1COc1cc(C)ccc1C` (single isomer, unassigned) [Compound No. 336, 2-(2,5-dimethylphenoxymethyl)phenyl isoxazol-3-yl ketone O-methyloxime] returned a melting point of 104 to 108 °C. The pest or weed control at 500 ppm in data set [1] worked out at 97%. For the same molecule, the “Controlling effect on PYricularia orYzae by foliage application at 500 ppm (percent control)” value with Pyricularia oryzae amounted to 90 percent control. For the same molecule, the “Controllng effect … (percent control)” value in the data set on Puccinia coronata worked out at 100 percent control. Besides, in the data set on Sphaerotheca fuliginea, the pest or weed control at 500 ppm was determined as 100%.

Take `CON=C(c1ncno1)c1ccccc1COc1ccc(Cl)cc1` [Compound No. 1584, 2-(4-chlorophenoxymethyl)phenyl 1,2,4-oxadiazol-5-yl ketone O-methyloxime]: the melting point fell in the range of 96 to 97.5 °C. Also, the pest or weed control at 500 ppm in data set [1] amounted to 100%. The “Controlling effect on PYricularia orYzae by foliage application at 500 ppm (percent control)” value with Pyricularia oryzae is on record as 70 percent control. In addition, the “Controllng effect … (percent control)” value in the data set on Puccinia coronata came to 70 percent control. The pest or weed control at 500 ppm in the data set with Sphaerotheca fuliginea came to 100%.

On to `CON=C(c1ccccc1COc1ccc(Cl)cc1)n1ccnc1` [Compound No. 7], for which the “Controlling effect on ErYsiphe graminis f. sp. tritici by foliage application at 500 ppm (percent control)” value in data set [1] is recorded as 100 percent control. Moreover, in the data set on Botrytis cinerea, the “Controlling effect on Botrytis cinerea by foliage application at 500 ppm (percent control)” value is given as 100 percent control. For the same molecule, in the data set on Pyricularia oryzae, the “Controlling effect on PYricularia orYzae by foliage application at 500 ppm (percent control)” value is listed as 97 percent control. In addition, the “Controllng effect … (percent control)” value with Puccinia coronata was 97 percent control. The “Controlling effect on Sphaerotheca fuliginea by foliage application at 500 ppm (percent control)” value with Sphaerotheca fuliginea was 100 percent control.

As to `CON=C(c1ccccc1COc1cccc(Cl)c1)n1cncc1C` [compound 206], the “Controlling effect on ErYsiphe graminis f. sp. tritici by foliage application at 500 ppm (percent control)” value in data set [1] was found to be 90 percent control. In the data set with Botrytis cinerea, the “Controlling effect on Botrytis cinerea by foliage application at 500 ppm (percent control)” value stood at 97 percent control. In addition, the “Controlling effect on PYricularia orYzae by foliage application at 500 ppm (percent control)” value in the data set with Pyricularia oryzae was determined as 90 percent control. The “Controllng effect … (percent control)” value with Puccinia coronata is on record as 97 percent control. In the data set with Sphaerotheca fuliginea, the “Controlling effect on Sphaerotheca fuliginea by foliage application at 500 ppm (percent control)” value was 100 percent control.
